Data as given in patent US20180363025A1, “T[…] FOR GUT INFLAMMATION” (William Marsh Rice University, priority 2015, published 2018).
“Also recorded” adds a separate entry of the source.

Tests used:
Shal_3128/9 [1] = details: TEAs tested at 10 mM; E. coli BW28357 expressing Shal_3128/9; FIG. 3D
Text: The sensor kinase was expressed from a p15A medium-copy expression vector with spectinomycin resistance. Production of Shal_3128 was driven by the Ptac promoter and a designed synthetic RBS (predicted strength 1,000), which was induced by IPTG and regulated by constitutively expressed LacI. Transcription of Shal_3128, LacI, and Spec^R was terminated by the B0015, T1, and T0 terminators, respectively.
The response regulator and rewired output promoter driving GFP production were on a ColE1 high-copy expression vector with chloramphenicol resistance. Shal_3129 production was regulated by constitutively expressed TetR at the PLTetO-1 aTc-inducible promoter with a synthetic RBS (predicted strength 1,000). […] Production of sfGFP was regulated by output of the PShal_3127 promoter using the B0034 RBS, which provides a visual readout of Shal_3128/9 activity. Transcription of Shal_3129, sfGFP, TetR, and Cm^R was terminated by the B0015, B0015, T1, and T0 terminators, respectively.
Both plasmids were transformed into the BW28357 E. coli strain, available from The Coli Genetic Stock Center (CGSC#: 7991, F−, Δ(araD-araB)567, ΔlacZ4787(TrnB-3); lambda^−, Δ(rhaD-rhaB)568, hsdR514).

Shal_3128/9 [2] = test: Ligand competition assay, sensor response to thiosulfate in presence of other TEAs; assay type: cell-based, Shewanella halifaxensis; details: 5 mM thiosulfate plus 10 mM other TEA; FIG. 3E
Protocol: FIG. 3A-F. Characterization of the thiosulfate-sensing proteins: Shal_3128/9. (3A) The S. halifaxensis genomic region containing the thiosulfate reductase operon (Shal_3125-7) and neighboring thiosulfate-sensing TCS (Shal_3128/9). (3B) Plasmid design of the inducible thiosulfate sensor. […] (3D) Selectivity of Shal_3128/9 to thiosulfate over other terminal electron acceptors. All TEAs were tested at 10 mM concentration. (3E) Ligand competition assay. Sensor performance at 5 mM thiosulfate was tested in the presence of 10 mM other TEAs, and a decrease in response indicates inhibition by the added ligand. (3F) Inhibition curve of tetrathionate (filled circles) and sulfite (open squares) in the presence of 5 mM thiosulfate.

thiosulfate sensor = test: Effect of DSS on GFP output of optimized thiosulfate sensor; assay type: cell-based, Shewanella halifaxensis; details: 3% DSS; optimized constitutive sensor in E. coli Nissle; FIG. 4D
Sequence of thiosulfate sensor (as listed by the source): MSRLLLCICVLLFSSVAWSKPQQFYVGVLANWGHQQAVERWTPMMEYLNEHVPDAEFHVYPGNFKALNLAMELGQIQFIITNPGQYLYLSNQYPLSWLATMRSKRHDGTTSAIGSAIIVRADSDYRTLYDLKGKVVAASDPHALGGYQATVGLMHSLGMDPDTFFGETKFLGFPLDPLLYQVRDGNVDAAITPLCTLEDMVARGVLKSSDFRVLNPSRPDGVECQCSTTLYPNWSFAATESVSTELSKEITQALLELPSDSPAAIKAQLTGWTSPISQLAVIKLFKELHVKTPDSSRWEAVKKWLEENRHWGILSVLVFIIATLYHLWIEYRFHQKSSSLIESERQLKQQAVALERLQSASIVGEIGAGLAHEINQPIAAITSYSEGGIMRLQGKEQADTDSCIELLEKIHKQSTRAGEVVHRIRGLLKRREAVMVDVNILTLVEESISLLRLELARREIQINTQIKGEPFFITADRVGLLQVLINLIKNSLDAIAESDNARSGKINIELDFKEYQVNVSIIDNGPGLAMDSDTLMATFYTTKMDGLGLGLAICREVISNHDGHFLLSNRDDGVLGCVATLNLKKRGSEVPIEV
Sequence of thiosulfate sensor (as listed by the source partner): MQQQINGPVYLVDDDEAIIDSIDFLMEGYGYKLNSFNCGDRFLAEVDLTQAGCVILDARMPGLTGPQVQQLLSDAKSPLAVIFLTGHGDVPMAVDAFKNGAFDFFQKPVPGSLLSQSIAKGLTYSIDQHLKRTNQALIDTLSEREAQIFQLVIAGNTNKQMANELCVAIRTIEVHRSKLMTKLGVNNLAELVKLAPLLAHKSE
Text: FIG. 4A-D. Sensor optimization for thiosulfate detection in the gut. (4A) Changes made between the initial characterization constructs and in vivo optimized sensor. (4B) Layout of sensor components on the final two plasmid expression system. (4C) Normalized dose-response behavior of thiosulfate sensors. Shown is the original, inducible, BW28357 strain grown aerobically (closed circles), and the selected constitutive promoter strain in Nissle grown aerobically (closed squares) and anaerobically (open squares). A shift in half-maximal response indicates sensitivity to oxygen. (4D) Dynamic range of optimized thiosulfate sensors. GFP output is shown in the absence (grey bars) and presence of 5 mM thiosulfate or 1 mM tetrathionate, respectively (black bars).

Compound | competition (inhibition of thiosulfate response) (Shal_3128/9 [2]) | also measured
O=S(O)(O)=S [thiosulfate] | – | stimulation of production of reporter protein GFP (Shal_3128/9 [1]): effectively stimulated production of reporter protein GFP
O=S(=O)(O)SSS(=O)(=O)O [tetrathionate] | modest level of competition | –
O=S(O)O [sulfite] | modest level of competition | –
Dextran Sodium Sulfate [DSS] | – | activation or inhibition of sensor signaling (thiosulfate sensor): does not activate or inhibit signaling; also recorded: does not appear to be sensitive
